From patent US6596257B2, “Detection and visualization of neoplastic tissues and other tissues” (Prolume, Ltd., priority 1996, dated 2003)

Tests used:
[1] = format: physicochemical
Excerpt: Coelenterazine is not terribly soluble in non-irritant vehicles. Coelenterazine is soluble to at least to a concentration of 200 micrograms/mL in a solution of 2% (w/v) PEG 400 containing about 0.8% (w/v) NaCl. Although this solution is slightly hypertonic, it is not an irritant for vehicle purposes.

mice = experiment: Repeated administration toxicology: gross signs of toxicity in behavior; format: in vivo, mouse; settings: 1 mg/kg i.p., daily administration for three days, n=6
Excerpt: […] Mice are examined over the course of the study for any gross signs of toxicity as evidenced in their behavior. At the end of the one-week period, blood which is collected by cardiac puncture immediately prior to sacrifice. Animals are sacrificed and ten different tissue samples are removed post mortem from each animal. Isolated tissues are fixed, stained, blocked and sectioned. The pathology of the tissue samples will be analyzed and the toxicology data are compiled.

solubility (soluble to at least a concentration of) [1]: ≥ 200 micrograms/mL
Substance: coelenterazine
gross behavior changes (mice): no gross behavior changes
